Structures can show the parent of a compound that is named as a salt. Numbered stars: 1 amine (or outer) side, 2 acyl side, 3 side chain; on linkers, the order of the positions; unused ones are H or OH. Bridge positions count the residues as written; N and C are the ends. Square brackets hold non-standard residues; d marks the D form. Peptide text beside a SMILES is read from it. * marks the point of attachment. hTyr(3S-OH,4S-OH,3'-OSO3H) = N[C@H](C(=O)O)[C@H](O)[C@@H](O)c1ccc(O)c(OS(=O)(=O)O)c1; Orn(4R-OH,5R-OH) = O=C([C@H](C[C@@H](O)[C@@H](O)N[*:3])N[*:1])[*:2]; Pro(3S-OH,4S-Me) = C[C@H]1CN[C@H](C(=O)O)[C@H]1O; X1 = CCCCCOc1ccc(-c2cc(-c3ccc(C(=O)*)cc3)no2)cc1; Gln(3R-OH) = NC(=O)C[C@@H](O)[C@H](N)C(=O)O; Hyp = O=C(O)[C@@H]1C[C@@H](O)CN1
biological target: SARS-CoV-2 Mac1 (Severe acute respiratory syndrome coronavirus 2, UniProt P0DTD1); test: biochemical; details: 100 µM; inhibitor

Point of comparison: COCCc1ccc(OCC(O)CNC(C)C)cc1 (centres unmarked) [Metoprolol Tartrate], “%inhibition” value 45.82%. Against it:
- CN(Cc1cnc2nc(N)nc(N)c2n1)c1ccc(C(=O)N[C@@H](CCC(=O)O)C(=O)O)cc1 [Methotrexate disodium] — lower, 0%
- CN(Cc1cnc2nc(N)nc(N)c2n1)c1ccc(C(=O)N[C@@H](CCC(=O)O)C(=O)O)cc1 [Methotrexate] — higher, 59.68%
- COCCc1ccc(OCC(O)CNC(C)C)cc1 (centres unmarked) [Metoprolol succinate] — lower, 1.216%
- COCCc1ccc(OCC(O)CNC(C)C)cc1 (centres unmarked) [Metoprolol] — lower, 3.241%

same assay, conditions: read-out: %inhibition

Point of comparison: Cc1ncc([N+](=O)[O-])n1CCO [Metronidazole], inhibition at 100 µM 16.9%. Against it:
- CN1CCCCC1CCN1c2ccccc2Sc2ccc([S+](C)[O-])cc21 (centres unmarked) [Mesoridazine Besylate] — lower, 6.43%
- C#C[C@]1(O)CC[C@H]2[C@@H]3CCc4cc(OC)ccc4[C@H]3CC[C@@]21C [Mestranol] — lower, 0%
- CC(C)NCC(O)c1cc(O)cc(O)c1 (centres unmarked) [Metaproterenol Sulfate] — lower, 2.56%
- C[C@H](N)[C@H](O)c1cccc(O)c1 [Metaraminol Bitartrate] — lower, 8.05%
- Cc1cc(C)cc(OCC2CNC(=O)O2)c1 (centres unmarked) [Metaxalone] — lower, 0%
- CN(C)C(=N)NC(=N)N [Metformin HCl] — higher, 32.6%
- CC(=O)OC(C)C[N+](C)(C)C (centres unmarked) [Methacholine chloride] — lower, 8.52%
- C=C1c2cccc(O)c2C(=O)C2=C(O)[C@]3(O)C(=O)C(C(N)=O)=C(O)[C@@H](N(C)C)[C@@H]3[C@@H](O)[C@H]12 [Methacycline HCl] — lower, 0%
- CC(=O)/N=c1/sc(S(N)(=O)=O)nn1C [Methazolamide] — lower, 0%
- C1N2CN3CN1CN(C2)C3 [Methenamine] — lower, 1.76%
- Cn1ccnc1S [Methimazole] — lower, 0%
- COc1ccccc1OCC(O)COC(N)=O (centres unmarked) [Methocarbamol] — higher, 36.3%
- COc1c2occc2cc2ccc(=O)oc12 [Methoxsalen] — lower, 14.7%
- CNC(C)Cc1ccccc1OC (centres unmarked) [Methoxyphenamine Hydrochloride] — lower, 0%
- C[N+]1(C)[C@@H]2C[C@@H](OC(=O)[C@H](CO)c3ccccc3)C[C@H]1[C@@H]1O[C@@H]12 [Methscopolamine] — lower, 0%
- CN1C(CCl)Nc2cc(Cl)c(S(N)(=O)=O)cc2S1(=O)=O (centres unmarked) [Methyclothiazide] — lower, 0%
- COC(=O)CCC(=O)CN [Methyl Aminolevulinate Hydrochloride] — lower, 3.98%
- COC(=O)c1ccccc1O [Methyl salicylate] — lower, 7.14%
- CC[N+](C)(CC)CCOC(=O)C(O)(c1ccccc1)c1ccccc1 [Methylbenactyzine Bromide] — lower, 9.38%
- C[C@](N)(Cc1ccc(O)c(O)c1)C(=O)O [Methyldopa] — lower, 8.62%
- CN(C)c1ccc2nc3ccc(=[N+](C)C)cc-3sc2c1 [Methylene Blue] — higher, 43.3%
- C[C@H]1C[C@@H]2[C@H]([C@@H](O)C[C@@]3(C)[C@H]2CC[C@]3(O)C(=O)CO)[C@@]2(C)C=CC(=O)C=C12 [Methylprednisolone] — higher, 39.6%
- Cc1cc(=O)[nH]c(=S)[nH]1 [Methylthiouracil] — lower, 0%
- Cc1cc2c(cc1S(N)(=O)=O)S(=O)(=O)CCC2 [Meticrane] — lower, 0%
- CCN(CC)CCNC(=O)c1cc(Cl)c(N)cc1OC [Metoclopramide HCl] — lower, 0%
- Cc1ccccc1N1C(=O)c2cc(S(N)(=O)=O)c(Cl)cc2NC1C (centres unmarked) [Metolazone] — lower, 0%
- CC(C)(C(=O)c1cccnc1)c1cccnc1 [Metyrapone] — lower, 5.33%
- CC[C@H](C)C(=O)O[C@H]1CCC=C2C=C[C@H](C)[C@H](CC[C@@H]3C[C@@H](O)CC(=O)O3)[C@H]21 [Mevastatin] — lower, 12.1%
- Cc1cccc(C)c1OCC(C)N (centres unmarked) [Mexiletine HCl] — lower, 9.05%
- CC1(C)S[C@@H]2[C@H](NC(=O)[C@H](NC(=O)N3CCN(S(C)(=O)=O)C3=O)c3ccccc3)C(=O)N2[C@H]1C(=O)O [Mezlocillin Sodium] — lower, 6.75%
- CCCCCOc1ccc(-c2cc(-c3ccc(C(=O)N[C@H]4C[C@@H](O)[C@@H](O)NC(=O)[C@@H]5[C@@H](O)[C@@H](C)CN5C(=O)[C@H]([C@H](O)CC(N)=O)NC(=O)[C@H]([C@H](O)[C@@H](O)c5ccc(O)c(OS(=O)(=O)O)c5)NC(=O)[C@@H]5C[C@@H](O)CN5C(=O)[C@H]([C@@H](C)O)NC4=O)cc3)no2)cc1 [Micafungin Sodium] (X1-[Orn(4R-OH,5R-OH)]T[Hyp][hTyr(3S-OH,4S-OH,3'-OSO3H)][Gln(3R-OH)][Pro(3S-OH,4S-Me)]; lactam 1-C) — lower, 0%
- CCC(=O)O[C@@H]1CC(=O)O[C@H](C)C/C=C/C=C/[C@H](O)[C@H](C)C[C@H](CC=O)[C@H](O[C@@H]2O[C@H](C)[C@@H](O[C@H]3C[C@@](C)(O)[C@@H](OC(=O)CC)[C@H](C)O3)[C@H](N(C)C)[C@H]2O)[C@H]1OC [Midecamycin] — lower, 5.18%
- CC#C[C@]1(O)CC[C@H]2[C@@H]3CCC4=CC(=O)CCC4=C3[C@@H](c3ccc(N(C)C)cc3)C[C@@]21C [Mifepristone] — lower, 8.31%
- OCCN1C[C@H](O)[C@@H](O)[C@H](O)[C@H]1CO [Miglitol] — lower, 11%
- Cc1[nH]c(=O)c(C#N)cc1-c1ccncc1 [Milrinone] — lower, 0%
- CCCCCCCCCCCCCCCCOP(=O)([O-])OCC[N+](C)(C)C [Miltefosine] — lower, 0%
- Cc1cc(-c2ccccc2)nnc1NCCN1CCOCC1 [Minaprine dihydrochloride] — lower, 2.13%
- CN(C)c1ccc(O)c2c1C[C@H]1C[C@H]3[C@H](N(C)C)C(O)=C(C(N)=O)C(=O)[C@@]3(O)C(O)=C1C2=O [Minocycline HCl] — lower, 0%
- Nc1cc(N2CCCCC2)nc(N)[n+]1OS(=O)(=O)[O-] [Minoxidil sulphate] — higher, 19%
- Nc1nc(CC(=O)Nc2ccc(CCNC[C@H](O)c3ccccc3)cc2)cs1 [Mirabegron] — lower, 0%
- CN1CCN2c3ncccc3Cc3ccccc3C2C1 (centres unmarked) [Mirtazapine] — lower, 7.99%
- CO[C@@]12[C@H](COC(N)=O)C3=C(C(=O)C(C)=C(N)C3=O)N1C[C@@H]1N[C@@H]12 [Mitomycin C] — lower, 10.1%
- Clc1ccc(C(c2ccccc2Cl)C(Cl)Cl)cc1 (centres unmarked) [Mitotane] — higher, 46.2%
- O=C1c2c(O)ccc(O)c2C(=O)c2c(NCCNCCO)ccc(NCCNCCO)c21 [Mitoxantrone 2HCl] — higher, 74.8%
- NC(=O)c1ncn([C@@H]2O[C@H](CO)[C@@H](O)[C@H]2O)c1O [Mizoribine] — lower, 0%
- Nc1ccccc1NC(=O)c1ccc(CNc2nccc(-c3cccnc3)n2)cc1 [Mocetinostat (MGCD0103)] — lower, 7.18%
- O=C(NCCN1CCOCC1)c1ccc(Cl)cc1 [Moclobemide (Ro 111163)] — lower, 0%
- CCOC(=O)[C@H](CCc1ccccc1)N[C@@H](C)C(=O)N1Cc2cc(OC)c(OC)cc2C[C@H]1C(=O)O [Moexipril HCl] — lower, 0%
- CCOC(=O)CC(=O)N1CCSC1COc1ccccc1OC (centres unmarked) [Moguisteine] — lower, 13%
- O=c1c(-n2ccnn2)c[nH]n1-c1cc(N2CCOCC2)ncn1 [Molidustat (BAY 85-3934)] — higher, 19.3%
